From BindingDB's records for doi:10.1016/j.bmcl.2008.12.050 (Merck Research Laboratories, 2009)
Where a name gives a salt, the structure may show the parent alone.

Experiment: Antagonist activity at human CCR2 receptor expressed in CHO cells by chemotaxis assay

Question: For `CC(C)[C@]1(C(=O)NCc2cc(C(F)(F)F)cc(C(F)(F)F)c2)CC[C@@H](NC2COC2)C1` [(1S,3R)-N-(3,5-bis(trifluoromethyl)benzyl)-1-isopropyl-3-(oxetan-3-ylamino)cyclopentanecarboxamide trifluoroacetate], which IC50 is on record?
Answer: The IC50 was 3.3 nM.

Question: With `CC(C)[C@]1(C(=O)NCc2cc(C(F)(F)F)cc(C(F)(F)F)c2)CC[C@@H](NC2CCOCC2C(F)(F)F)C1` (stereo partly drawn) [(1S,3R)-N-(3,5-bis(trifluoromethyl)benzyl)-1-isopropyl-3-(3-(trifluoromethyl)tetrahydro-2H-pyran-4-ylamino)cyclopentanecarboxamide] as the compound, how does the IC50 read?
Answer: Its IC50 is 1 nM.

Question: For `CC(C)[C@]1(C(=O)NCc2cc(C(F)(F)F)cc(C(F)(F)F)c2)CC[C@@H](NC2CCOCC2F)C1` (stereo partly drawn) [(1S,3R)-N-(3,5-bis(trifluoromethyl)benzyl)-3-(3-fluorotetrahydro-2H-pyran-4-ylamino)-1-isopropylcyclo pentanecarboxamide], which IC50 is on record?
Answer: The IC50 was 0.8 nM.

Question: With `CCC1COCCC1N[C@@H]1CC[C@@](C(=O)NCc2cc(C(F)(F)F)cc(C(F)(F)F)c2)(C(C)C)C1` (stereo partly drawn) [(1S,3R)-N-(3,5-bis(trifluoromethyl)benzyl)-3-(3-ethyltetrahydro-2H-pyran-4-ylamino)-1-isopropylcyclopentanecarboxamide] as the compound, how does the IC50 read?
Answer: Its IC50 is 0.3 nM.

Question: With `CC1COCCC1N[C@@H]1CC[C@@](C(=O)NCc2cc(C(F)(F)F)cc(C(F)(F)F)c2)(C(C)C)C1` (stereo partly drawn) [(1S,3R)-N-(3,5-bis(trifluoromethyl)benzyl)-1-isopropyl-3-(3-methyltetrahydro-2H-pyran-4-ylamino)cyclopentanecarboxamide] as the compound, how does the IC50 read?
Answer: Its IC50 is 0.1 nM.

Question: With `CCCC1COCCC1N[C@@H]1CC[C@@](C(=O)NCc2cc(C(F)(F)F)cc(C(F)(F)F)c2)(C(C)C)C1` (stereo partly drawn) [(1S,3R)-N-(3,5-bis(trifluoromethyl)benzyl)-1-isopropyl-3-(3-propyltetrahydro-2H-pyran-4-ylamino)cyclopentanecarboxamide] as the compound, how does the IC50 read?
Answer: The IC50 was 5.1 nM.
